Assay results: patent US20220125051A1, “PRE-HARVEST DESICCATION METHOD” (SYNGENTA CROP PROTECTION AG, priority 2019, published 2022)
“And” between values parts separate entries of the source, which are not always exact repeats. Identical values can stand only once.

Assays:
Assay type in all cases: in vivo
[1] = tested on: Amaranthus retroflexus (AMARE); assay: Post-emergence efficacy, Method B; conditions: read-out: Control of weed species after post-emergence application, AMARE
Description: (§1) An “instant formulation”, known as the IF50, containing 50 g/L of the “technical” (i.e. unformulated) active ingredient was prepared by dissolving the active ingredient in a mixture of organic solvents and emulsifier, details of which are provided in the table. This IF50 was then mixed with a small, variable amount of acetone to aid dissolution, before addition of an aqueous solution of 1% v/v ammonium sulphate+1% v/v Empicol ESC70 (Sodium lauryl ether sulphate) adjuvant, as the aqueous diluent, to form an aqueous spray solution which contains a predetermined concentration of the active ingredient (which varies depending on the application rate of the active ingredient to the plants).
(§2) This aqueous spray solution was then sprayed onto the plants, after about 12 days' cultivation. The plants were grown from seeds sown in standard soil, placed in a glasshouse under controlled conditions (at 24/18° C. or 20/16° C., day/night; 16 hours light; 65% humidity). After spray application the plants were then grown on in a glasshouse under the same conditions and watered twice daily. After days the test was evaluated (100=total damage to plant; 0=no damage to plant).
(§3) Ipomoea hederacea (IPOHE), Euphorbia heterophylla (EPHHL), Chenopodium album (CHEAL), Amaranthus retroflexus (AMARE), Lolium perenne (LOLPE), Digitaria sanguinalis (DIGSA), Eleusine indica (ELEIN), Echinochloa crus-galli (ECHCG), Setaria faberi (SETFA)

[2] = tested on: Chenopodium album (CHEAL); assay: Post-emergence efficacy, Method B; conditions: read-out: Control of weed species after post-emergence application, CHEAL
Description: as §1, §2, §3

[3] = tested on: Digitaria sanguinalis (DIGSA); assay: Post-emergence efficacy, Method B; conditions: read-out: Control of weed species after post-emergence application, DIGSA
Description: as §1, §2, §3

[4] = tested on: Echinochloa crus-galli (ECHCG); assay: Post-emergence efficacy, Method B; conditions: read-out: Control of weed species after post-emergence application, ECHCG
Description: as §1, §2, §3

Eleusine indica (ELEIN) [5] = assay: Post-emergence efficacy, Method B; conditions: read-out: Control of weed species after post-emergence application, ELEIN
Description: as §1, §2, §3

[6] = tested on: Euphorbia heterophylla (EPHHL); assay: Post-emergence efficacy, Method B; conditions: read-out: Control of weed species after post-emergence application, EPHHL
Description: as §1, §2, §3

[7] = tested on: Ipomoea hederacea (IPOHE); assay: Post-emergence efficacy, Method B; conditions: read-out: Control of weed species after post-emergence application, IPOHE
Description: as §1, §2, §3

Lolium perenne (LOLPE) [8] = assay: Post-emergence efficacy, Method B; conditions: read-out: Control of weed species after post-emergence application, LOLPE
Description: as §1, §2, §3

Setaria faberi (SETFA) = assay: Post-emergence efficacy, Method B; conditions: read-out: Control of weed species after post-emergence application, SETFA
Description: as §1, §2, §3

Brassica napus (BRSNN) = assay: Pre-harvest desiccation of crop plants; conditions: evaluated after 7 and 14 days (which not stated), 100=total damage to plant, 0=no damage; for Post-emergence dessication efficacy, BRSNN: Table E; for Post emergence dessication efficacy, BRSNN: Table F
Description: (§4) Seeds of a variety of test species were sown in standard loam based soil in pots. After cultivation from between 21 and 28 days (post-emergence) under controlled conditions in a glasshouse (at 24/16° C., day/night; 14 hours light; 65% humidity) for warm climate species and (at 20/16° C. day/night; 15 hours light; 65% humidity) for cool climate species.
(§5) The plants were sprayed with an aqueous spray solution derived from dissolving the technical active ingredient formula in a small amount of acetone and a special solvent and emulsifier mixture referred to as IF50 (11.12% Emulsogen EL360 TM+44.44% N-methylpyrrolidone+44.44% Dowanol DPM glycol ether), to create a 50 g/I solution which was then diluted to required concentration using a solution of 1% Empicol ESC70 (Sodium lauryl ether sulphate)+1% ammonium sulphate in water as diluent.
(§6) The delivery of the aqueous spray solution was via a laboratory track sprayer which delivered the aqueous spray composition at a rate of 200 litres per hectare, using a flat fan nozzle (Teejet 11002VS) and an application volume of 200 litre/ha (at 2 bar).
(§7) The test plants were then grown in a glasshouse under controlled conditions (at 24/16° C., day/night; 14 hours light; 65% humidity) for warm climate species and (at 20/16° C. day/night; 15 hours light; 65% humidity) for cool climate species and watered twice daily. After 7 and 14 days the test was evaluated (100=total damage to plant; 0=no damage to plant).
(§8) A value of n/t indicates not tested.
(§9) Glycine Max (GLXMA), Solanum turberosum (SOLTU), Gossypium hirsutum (GOSHI), Brassica napus (BRSNN), Helianthus annus (HELAN)

Glycine Max (GLXMA) = assay: Pre-harvest desiccation of crop plants; conditions: evaluated after 7 and 14 days (which not stated), 100=total damage to plant, 0=no damage; for Post-emergence dessication efficacy, GLXMA: Table E; for Post emergence dessication efficacy, GLXMA: Table F
Description: as §4, §5, §6, §7, §8, §9

[9] = tested on: Gossypium hirsutum (GOSHI); assay: Pre-harvest desiccation of crop plants; conditions: Table E, evaluated after 7 and 14 days (which not stated), 100=total damage to plant, 0=no damage
Description: as §4, §5, §6, §7, §8, §9

[10] = tested on: Solanum turberosum (SOLTU); assay: Pre-harvest desiccation of crop plants; conditions: Table E, evaluated after 7 and 14 days (which not stated), 100=total damage to plant, 0=no damage
Description: as §4, §5, §6, §7, §8, §9

[11] = tested on: Amaranthus palmeri (AMAPA); assay: Post-emergence efficacy, Method C; conditions: 400 g/Ha, evaluated at 21 days, 100=total damage to plant, 0=no damage
Description: (§10) An “instant formulation”, known as the IF50, containing 50 g/L of the “technical” (i.e. unformulated) active ingredient was prepared by dissolving the active ingredient in a mixture of organic solvents and emulsifier, details of which are provided in the table. This IF50 was then mixed with a small, variable amount of acetone to aid dissolution, before addition of a 1% v/v aqueous solution in water of the adjuvant Empicol ESC70 3EO (Sodium lauryl ether sulphate) and 1% v/v Ammonium sulphate, as the aqueous diluent, to form an aqueous spray solution which contains a predetermined concentration of the active ingredient (which varies depending on the application rate of the active ingredient to the plants).
(§11) The composition of the mixture of organic solvents and emulsifier used as a base for the instant formulation was as given above in Table IF.
as §2, with “plants” for “plants,”, “21 days of” for “12 days'”, “24/18°” for “24/18° C. or 20/16°”, “14” for “16”, “The” for “After days the”, “evaluated at 21 days” for “evaluated”
(§12) Ipomoea hederacea (IPOHE), Amaranthus palmeri (AMAPA), Lolium perenne (LOLPE), Eleusine indica (ELEIN), Echinochloa crus-gaffi (ECHCG), Conyza canadensis (ERICA)

[12] = tested on: Conyza canadensis (ERICA); assay: Post-emergence efficacy, Method C; conditions: 400 g/Ha, evaluated at 21 days, 100=total damage to plant, 0=no damage
Description: as §10, §11
as §2, with “plants” for “plants,”, “21 days of” for “12 days'”, “24/18°” for “24/18° C. or 20/16°”, “14” for “16”, “The” for “After days the”, “evaluated at 21 days” for “evaluated”
as §12

[13] = tested on: Echinochloa crus-gaffi (ECHCG); assay: Post-emergence efficacy, Method C; conditions: 400 g/Ha, evaluated at 21 days, 100=total damage to plant, 0=no damage
Description: as §10, §11
as §2, with “plants” for “plants,”, “21 days of” for “12 days'”, “24/18°” for “24/18° C. or 20/16°”, “14” for “16”, “The” for “After days the”, “evaluated at 21 days” for “evaluated”
as §12

Eleusine indica (ELEIN) [14] = assay: Post-emergence efficacy, Method C; conditions: 400 g/Ha, evaluated at 21 days, 100=total damage to plant, 0=no damage
Description: as §10, §11
as §2, with “plants” for “plants,”, “21 days of” for “12 days'”, “24/18°” for “24/18° C. or 20/16°”, “14” for “16”, “The” for “After days the”, “evaluated at 21 days” for “evaluated”
as §12

[15] = tested on: Ipomoea hederacea (IPOHE); assay: Post-emergence efficacy, Method C; conditions: 400 g/Ha, evaluated at 21 days, 100=total damage to plant, 0=no damage
Description: as §10, §11
as §2, with “plants” for “plants,”, “21 days of” for “12 days'”, “24/18°” for “24/18° C. or 20/16°”, “14” for “16”, “The” for “After days the”, “evaluated at 21 days” for “evaluated”
as §12

Lolium perenne (LOLPE) [16] = assay: Post-emergence efficacy, Method C; conditions: 400 g/Ha, evaluated at 21 days, 100=total damage to plant, 0=no damage
Description: as §10, §11
as §2, with “plants” for “plants,”, “21 days of” for “12 days'”, “24/18°” for “24/18° C. or 20/16°”, “14” for “16”, “The” for “After days the”, “evaluated at 21 days” for “evaluated”
as §12

Helianthus annus (HELAN) = assay: Pre-harvest desiccation of crop plants; conditions: Table F, evaluated after 7 and 14 days (which not stated), 100=total damage to plant, 0=no damage
Description: as §4, §5, §6, §7, §8, §9

Compound | pest or weed control at 1000 g/ha [1] [%] | pest or weed control at 1000 g/ha [2] [%] | pest or weed control at 1000 g/ha [3] [%] | pest or weed control at 1000 g/ha [4] [%] | pest or weed control at 1000 g/ha (Eleusine indica (ELEIN) [5]) [%] | pest or weed control at 1000 g/ha [6] [%] | pest or weed control at 1000 g/ha [7] [%] | pest or weed control at 1000 g/ha (Lolium perenne (LOLPE) [8]) [%] | pest or weed control at 1000 g/ha (Setaria faberi (SETFA)) [%] | Control of weed species after post-emergence application, AMAPA [11] | Control of weed species after post-emergence application, ERICA [12] | Control of weed species after post-emergence application, ECHCG [13] | Control of weed species after post-emergence application, ELEIN (Eleusine indica (ELEIN) [14]) | Control of weed species after post-emergence application, IPOHE [15] | Control of weed species after post-emergence application, LOLPE (Lolium perenne (LOLPE) [16]) | also measured
O=C(O)CC[n+]1ccc(-c2ccncn2)cn1.[Cl-] [Compound A28] | 100 | 90 | 100 | 100 | 100 | 100 | 100 | 70 | 40 | – | – | – | – | – | – | Post-emergence dessication efficacy, BRSNN (Brassica napus (BRSNN); 150 g/Ha): 97; Post-emergence dessication efficacy, BRSNN (Brassica napus (BRSNN); 300 g/Ha): 100; Post-emergence dessication efficacy, BRSNN (Brassica napus (BRSNN); 600 g/Ha): 100; Post-emergence dessication efficacy, GLXMA (Glycine Max (GLXMA); 150 g/Ha): 93; Post-emergence dessication efficacy, GLXMA (Glycine Max (GLXMA); 300 g/Ha): 99; Post-emergence dessication efficacy, GLXMA (Glycine Max (GLXMA); 600 g/Ha): 99; Post-emergence dessication efficacy, GOSHI ([9]; 150 g/Ha): 100; Post-emergence dessication efficacy, GOSHI ([9]; 300 g/Ha): 100; Post-emergence dessication efficacy, GOSHI ([9]; 600 g/Ha): 100; Post-emergence dessication efficacy, SOLTU ([10]; 150 g/Ha): 100; Post-emergence dessication efficacy, SOLTU ([10]; 300 g/Ha): 100; Post-emergence dessication efficacy, SOLTU ([10]; 600 g/Ha): 100
Cl.O=S(=O)([O-])CC[n+]1ccc(-c2ccncc2)cn1 [Compound A27] | – | – | – | – | – | – | – | – | – | 77 | 65 | 43 | 80 | 90 | 68 | –
O=C(O)CC[n+]1ccc(-c2cccnn2)cn1.[Cl-] [Compound A138, 3-(4-pyridazin-3-ylpyridazin-1-ium-1-yl)propanoic acid chloride] | 100 | 100 | 100 | 100 | 100 | 100 | 40 | 100 | 100 | – | – | – | – | – | – | Post emergence dessication efficacy, BRSNN (Brassica napus (BRSNN); 150 g/Ha): 63 and 98; Post emergence dessication efficacy, BRSNN (Brassica napus (BRSNN); 600 g/Ha): 96 and 100; Post emergence dessication efficacy, GLXMA (Glycine Max (GLXMA); 50 g/Ha): 57 and 37; Post emergence dessication efficacy, GLXMA (Glycine Max (GLXMA); 150 g/Ha): 67 and 72; Post emergence dessication efficacy, GLXMA (Glycine Max (GLXMA); 600 g/Ha): 82 and 90; Post emergence dessication efficacy, HELAN (Helianthus annus (HELAN); 50 g/Ha): 100; Post emergence dessication efficacy, HELAN (Helianthus annus (HELAN); 150 g/Ha): 100; Post emergence dessication efficacy, HELAN (Helianthus annus (HELAN); 600 g/Ha): 100
O=S(=O)([O-])C[n+]1ccc(-c2ncccn2)cn1 [Compound A3, (4-pyrimidin-2-ylpyridazin-1-ium-1-yl)methanesulfonate] | – | – | – | – | – | – | – | – | – | 65 | 100 | 13 | 15 | 83 | 25 | –
